Assays:
KRAS G12C = KRAS G12C (Homo sapiens, UniProt P01116, G12C); experiment: Cell Activity Assay: accumulation of GDP-bound KRAS G12C in MIAPaCa-2 cells (Raf-1 RBD capture, MSD readout); assay type: cell-based; design: endogenous in cells; host or cells: MIAPaCa-2; settings: 6 hours, assay limit is 30.00
In short: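 MIAPaCa-2 cells exposed 6 h at 37 °C to 3-fold compound dilutions (0.3% DMSO final), then lysed. Active GTP-KRAS captured on Raf-1 RBD-coated plates, detected with anti-pan-Ras and SULFO-TAG secondary by MSD electrochemiluminescence. Signal normalized to DMSO and maximum inhibition; IC50 from 4-parameter fit.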

[1] = target: T1, GDP-loaded KRAS (1-169) G12C, C51S, C80L, C118S (Homo sapiens, UniProt P01116, C118S/C51S/C80L/G12C); experiment: Mass Spectrometry Reactivity Assay (MSRA): covalent adduct of compound and KRAS G12C, Percent Modification; assay type: binding; settings: for MSRA (% modification) 5.0 μM 0.017 hr / MSRA (% modification) 5.0 μM 0.25 hr: 5.0 μM compound; for MSRA (% modification) 10 μM 0.50 hr / MSRA (% modification) 10 μM 0.25 hr: 10 μM compound
T1 construct: GDP-loaded KRAS (1-169) G12C, C51S, C80L, C118S
In short: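 GDP-loaded KRAS(1-169) G12C/C51S/C80L/C118S at 5 μM in 25 mM Hepes pH 7.5, 200 mM NaCl, 5% glycerol incubated at RT with compound (typically 5 or 10 μM final, 1% DMSO). Quenched in formic acid at 1-60 min; intact-protein LC-TOF MS gives % modification = modified/(modified+unmodified).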

| Structure (SMILES) | IC50 (KRAS G12C) [µM] | MSRA (% modification) 5.0 μM 0.017 hr [1] [%] | MSRA (% modification) 10 μM 0.50 hr [1] [%] | MSRA (% modification) 5.0 μM 0.25 hr [1] [%] | MSRA (% modification) 10 μM 0.25 hr [1] [%] |
| --- | --- | --- | --- | --- | --- |
| C=CC(=O)N1CCN(c2nc(O[C@@H]3CN(C)C[C@H]3OC)nc3c(Oc4c(Cl)c(F)cc5[nH]ncc45)nc(C)cc23)CC1 [Example 01K, 1-[4-(8-[(5-chloro-6-fluoro-1H-indazol-4-yl)oxy]-2-{[(3R,4R)-4-methoxy-1-methylpyrrolidin-3-yl]oxy}-6-methylpyrido[3,4-d]pyrimidin-4-yl)piperazin-1-yl]prop-2-en-1-one] | 0.065 | 65 | – | – | – |
| C=CC(=O)N1CCN(c2nc(NCc3nc(C)c[nH]3)nc3c(Oc4c(C)ccc5[nH]ncc45)cccc23)CC1 [Example 01F, 1-[4-(2-{[(4-methyl-1H-imidazol-2-yl)methyl]amino}-8-[(5-methyl-1H-indazol-4-yl)oxy]quinazolin-4-yl)piperazin-1-yl]prop-2-en-1-one] | 9.34 | – | 35 | – | – |
| C=CC(=O)N1CCN(c2nc(O[C@@H]3CN(C(C)C)C[C@H]3OC)nc3c(Oc4c(Cl)c(F)cc5[nH]ncc45)nccc23)CC1 [Example 20I, 1-[4-(8-[(5-chloro-6-fluoro-1H-indazol-4-yl)oxy]-2-{[(3R,4R)-4-methoxy-1-(propan-2-yl)pyrrolidin-3-yl]oxy}pyrido [3,4-d]pyrimidin-4-yl)piperazin-1-yl]prop-2-en-1-one] | 0.016 | 73 | – | – | – |
| C=CC(=O)N1CCN(c2nc(N3CC(N(C)C)C3)nc3c(Oc4c(C)ccc5[nH]ncc45)nc(C)cc23)[C@@H](C)C1 [Example 05B, 1-[(3S)-4-{2-[3-(dimethylamino)azetidin-1-yl]-6-methyl-8-[(5-methyl-1H-indazol-4-yl)oxy]pyrido[3,4-d]pyrimidin-4-yl}-3-methylpiperazin-1-yl]prop-2-en-1-one] | 4.03 | – | 15 | – | – |
| C=CC(=O)N1CCN(c2nc(O[C@@H]3CN(C)C[C@H]3O)nc3c(Oc4c(Cl)c(F)cc5[nH]ncc45)nc(Cl)cc23)CC1 [Example 37G, 1-[4-(6-chloro-8-[(5-chloro-6-fluoro-1H-indazol-4-yl)oxy]-2-{[(3R,4R)-4-hydroxy-1-methylpyrrolidin-3-yl]oxy}pyrido[3,4-d]pyrimidin-4-yl)piperazin-1-yl]prop-2-en-1-one] | 0.338 | 37 | – | – | – |
| C=CC(=O)N1CCN(c2ncnc3c(Oc4c(Cl)c(Cl)cc5[nH]ncc45)nc(Cl)cc23)CC1 [Example 30A, 1-(4-{6-chloro-8-[(5,6-dichloro-1H-indazol-4-yl)oxy]pyrido[3,4-d]pyrimidin-4-yl}piperazin-1-yl)prop-2-en-1-one] | 0.247 | – | 67 | – | – |
| C=CC(=O)N1CCN(c2ncnc3c(Oc4c(C)c(C)cc5[nH]ncc45)nccc23)CC1 [Example 12A, 1-(4-{8-[(5,6-dimethyl-1H-indazol-4-yl)oxy]pyrido[3,4-d]pyrimidin-4-yl}piperazin-1-yl)prop-2-en-1-one] | 2.95 | – | 38 | – | – |
| C=CC(=O)N1CCN(c2ncnc3c(Oc4c(Cl)c(C)cc5[nH]ncc45)nccc23)C[C@@H]1C [Example 22A, 1-[(2S)-4-{8-[(5-chloro-6-methyl-1H-indazol-4-yl)oxy]pyrido[3,4-d]pyrimdin-4-yl}-2-methylpiperazin-1-yl]prop-2-en-1-one] | 15.6 | – | 10 | – | – |
| C=CC(=O)N1CCN(c2ncnc3c(Oc4c(F)c(Cl)cc5[nH]ncc45)nc(Cl)cc23)CC1 [Example 34A, 1-(4-{6-chloro-8-[(6-chloro-5-fluoro-1H-indazol-4-yl)oxy]pyrido[3,4-d]pyrimidin-4-yl}piperazin-1-yl)prop-2-en-1-one] | 1.29 | – | – | 19 | 47 |
| C=CC(=O)N1CCN(c2nc(OCC3(F)CCN(C)CC3)nc3c(Oc4c(Cl)c(F)cc5[nH]ncc45)nccc23)CC1 [Example 12I, 1-(4-{8-[(5-chloro-6-fluoro-1H-indazol-4-yl)oxy]-2-[(4-fluoro-1-methyl-piperidin-4-yl)methoxy]pyrido [3,4-d]pyrimidin-4-yl}piperazin-1-yl)prop-2-en-1-one] | 0.12 | – | – | 78 | – |
| C=CC(=O)N1CCN(c2nc(Oc3cccc4c3CN(C)C4)nc3c(Oc4c(Cl)c(F)cc5[nH]ncc45)nccc23)CC1 [Example 41I, 1-(4-{8-[(5-chloro-6-fluoro-1H-indazol-4-yl)oxy]-2-[(2-methyl-2,3-dihydro-1H-isoindol-4-yl)oxy]pyrido [3,4-d]pyrimidin-4-yl}piperazin-1-yl)prop-2-en-1-one] | 0.021 | 70 | – | – | – |
| C=CC(=O)N1CCN(c2nc(O[C@@H]3COC[C@H]3N(C)C)nc3c(Oc4c(Cl)c(F)cc5[nH]ncc45)nccc23)CC1 (racemic) [Example 23I, rac-1-[4-(8-[(5-chloro-6-fluoro-1H-indazol-4-yl)oxy]-2-{[(3S,4R)-4-(dimethyl-amino)oxolan-3-yl]oxy}pyrido [3,4-d]pyrimidin-4-yl)piperazin-1-yl]prop-2-en-1-one] | 0.348 | 12 | – | – | – |
| C=CC(=O)N1CCN(c2nc(OC[C@H]3CCN(C)C3)nc3c(Oc4c(Cl)c(F)cc5[nH]ncc45)nccc23)CC1 [Example 18E, 1-[4-(8-[(5-chloro-6-fluoro-1H-indazol-4-yl)oxy]-2-{[(3S)-1-methylpyrrolidin-3-yl]methoxy}pyrido[3,4-d]pyrimidin-4-yl)piperazin-1-yl]prop-2-en-1-one] | 0.262 | – | – | – | 80 |
| C=CC(=O)N1CCN(c2nc(OC[C@H]3C[C@@H](F)CN3C)nc3c(Oc4c(Cl)c(F)cc5[nH]ncc45)nc(Cl)cc23)CC1 [Example 22G, 1-[4-(6-chloro-8-[(5-chloro-6-fluoro-1H-indazol-4-yl)oxy]-2-{[(2R,4R)-4-fluoro-1-methylpyrrolidin-2-yl]methoxy}pyrido[3,4-d]pyrimidin-4-yl)piperazin-1-yl]prop-2-en-1-one] | 0.072 | – | – | – | 81 |
| C=CC(=O)N1CCN(c2nc(O[C@@H]3CCC[C@H]3N(C)C)nc3c(Oc4c(C)ccc5[nH]ncc45)nccc23)CC1 [Example 11B, 1-[4-(2-{[(1R,2R)-2-(dimethylamino)cyclopentyl]oxy}-8-[(5-methyl-1H-indazol-4-yl)oxy]pyrido[3,4-d]pyrimidin-4-yl)piperazin-1-yl]prop-2-en-1-one] | 4.89 | – | – | – | 21 |
| C=CC(=O)N1CCN(c2nc(Oc3cccnc3CC)nc3c(Oc4c(Cl)c(F)cc5[nH]ncc45)nccc23)CC1 [Example 03I, 1-(4-{8-[(5-chloro-6-fluoro-1H-indazol-4-yl)oxy]-2-[(2-ethyl-pyridin-3-yl)oxy]pyrido[3,4-d]pyrimidin-4-yl}piperazin-1-yl)prop-2-en-1-one] | 0.06 | – | – | 52 | – |
| C=CC(=O)N1CCN(c2ncnc3c(Oc4c(Cl)c(F)cc5[nH]ncc45)nc(Cl)cc23)C[C@@H]1C [Example 36A, 1-[(2S)-4-{6-chloro-8-[(5-chloro-6-fluoro-1H-indazol-4-yl)oxy]pyrido[3,4-d]pyrimidin-4-yl}-2-methylpiperazin-1-yl]prop-2-en-1-one] | 4.7 | – | – | – | 31 |
| C=CC(=O)N1CCN(c2nc(OC[C@H]3COCCN3C)nc3c(Oc4c(Cl)c(F)cc5[nH]ncc45)nccc23)CC1 [Example 10H, 1-[4-(8-[(5-chloro-6-fluoro-1H-indazol-4-yl)oxy]-2-{[(3R)-4-methylmorpholin-3-yl]methoxy}pyrido[3,4-d]pyrimidin-4-yl)piperazin-1-yl]prop-2-en-1-one] | 0.965 | – | 68 | 47 | – |
| C=CC(=O)N1CCN(c2nc(O[C@@H]3CN(C)C[C@H]3C(F)(F)F)nc3c(Oc4c(Cl)c(F)cc5[nH]ncc45)nccc23)CC1 [Example 57I, 1-[4-(8-[(5-chloro-6-fluoro-1H-indazol-4-yl)oxy]-2-{[(3S,4R)-1-methyl-4-(trifluoro-methyl)pyrrolidin-3-yl]oxy}pyrido [3,4-d]pyrimidin-4-yl)piperazin-1-yl]prop-2-en-1-one] | 0.024 | 22 | – | – | – |
| C=CC(=O)N1CCN(c2ncnc3c(Oc4c(Cl)ccc5[nH]ncc45)cccc23)[C@@H](C)C1 [Example 09C, 1-[(3S)-4-{8-[(5-chloro-1H-indazol-4-yl)oxy]quinazolin-4-yl}-3-methylpiperazin-1-yl]prop-2-en-1-one] | 2.87 | – | 34 | – | – |
| C=CC(=O)N1CCN(c2nc(OCCCN(C)C)nc3c(Oc4c(C)ccc5[nH]ncc45)nccc23)CC1 [Example 04B, 1-(4-{2-[3-(dimethylamino)propoxy]-8-[(5-methyl-1H-indazol-4-yl)oxy]pyrido[3,4-d]pyrimidin-4-yl}piperazin-1-yl)prop-2-en-1-one] | 23 | – | 21 | – | – |
| C=CC(=O)N1CCN(c2ncnc3c(Oc4c(C)ccc5[nH]ncc45)cccc23)[C@@H](C)C1 [Example 10C, 1-[(3S)-3-methyl-4-{8-[(5-methyl-1H-indazol-4-yl)oxy]quinazolin-4-yl}piperazin-1-yl]prop-2-en-1-one] | 5.21 | – | 27 | – | – |

Reference: US10662204B2 (PFIZER INC., priority 2018, dated 2020)
